Several values for one entry are separate records, joined by “and”; a condition that tells them apart may be missing. Equal values may be shown once. One block for each compound: values may come before it.
Experiments:
Type in all cases: in vivo, male New Zealand White rabbits
[1] = Example 2 aqueous humor concentrations; conditions: for Average Peak Concentration, Aqueous Humor: suspension
Description: (§1) To measure the concentration of Compound 1 in plasma and ocular tissues following topical ocular, subcutaneous, and intravitreal administration, New Zealand White rabbits were administered Compound 1, and plasma and ocular samples were collected at pre-determined time points. Compound 1 formulations were prepared fresh on each day of dosing.
(§2) Ocular tissue samples from both eyes of each animal were collected and weights were recorded. Plasma and ocular tissue sample concentrations of Compound 1 were determined by LC-MS/MS.
(§3) Animals were anesthetized for ocular (topical) and intravitreal dosing following the 12IA7 IACUC protocol. Each rabbit received a bolus dose of test formulation either via topical ocular administration 3 times daily on Days 1 and 2 (at 0, 6, and 12 hours), and once on Day 3 (at 0 hours) into both eyes; via intravitreal administration into both eyes once on Day 1 (at 0 hours); or via subcutaneous administration 2 times daily on Days 1 and 2 (at 0 and 8 hours) and once daily on Day 3 (at 0 hours). Doses were given within an approximately 1 hour window each day where applicable.
(§4) On Day 1, for intravitreal administration, or on Day 3, for topical ocular and subcutaneous administration, at the appropriate ocular tissue collection time points, animals were euthanized and both eyes were enucleated immediately. Following enucleation, each eye was rinsed with phosphate-buffered saline. Ocular tissue samples from both eyes of each animal were collected at predetermined time points and weights were recorded. All the samples were frozen immediately on dry ice, and stored at −60° C. to −80° C. pending bioanalysis.
(§5) An LC-MS/MS method was developed for the determination of Compound 1 in rabbit aqueous tissues (plasma, aqueous and vitreous humor) and solid ocular tissue samples. A pre-study standard curve was analyzed to determine the specificity, range, and lower limit of quantitation of the method. Plasma and tissue homogenate study samples were extracted and analyzed. All the samples were treated identically to the standards.
(§6) One eight-point standard curve was used in each analytical batch. To be accepted, each batch must have had at least five of eight standards with accuracy within ±20% of nominal, except at the lower limit of quantification (LLOQ), where ±25% was acceptable.

[2] = Example 2 vitreous humor concentrations; conditions: for Average Peak Concentration, Vitreous Humor: suspension
Description: as §1, §2, §3, §4, §5, §6

[3] = Example 2 plasma concentrations and pharmacokinetics after topical ocular, subcutaneous, intravitreal administration
Description: as §1, §2
New Zealand White rabbits weighing 2.5 to 3.5 kg were used on this study. Rabbits were housed one per cage. Animals were not fasted and only healthy animals with no ocular illness were used. Two rabbits per group were sacrificed at each of four ocular tissue sampling time points for a total of eight rabbits per group.
as §3
Each blood sample was collected on Day 3 post dose at pre-determined time points from the rabbits via an ear vessel and placed into chilled polypropylene tubes containing sodium heparin as an anticoagulant. Samples were spun by centrifuge at 4° C. and 3,000× g for 5 minutes. Samples were maintained chilled throughout processing. Each plasma sample was placed on dry ice and stored in a freezer at −60° C. to −80° C. pending bioanalysis.
as §5, §6
Pharmacokinetic parameters were calculated from the time course of the plasma concentration. The maximum plasma concentration (Cmax) and time to the maximum plasma drug concentration (Tmax) were the observed values for each concentration-time profiles. The area under the plasma drug concentration-time curve (AUClast, with last being from time 0 to the last quantifiable point) was calculated using the trapezoidal formula. The mean residence time MRTlast was calculated as a ratio of AUMClast (area under the first movement curve) to AUClast.

[4] = Group 3 (subcutaneous 5 mg/kg/dose, suspension), 0.5 hr
[5] = Group 3 (subcutaneous 5 mg/kg/dose, suspension), 1.0 hr
[6] = Group 3 (subcutaneous 5 mg/kg/dose, suspension), 2.0 hr
[7] = Group 3 (subcutaneous 5 mg/kg/dose, suspension), 4.0 hr
[8] = Group 3: subcutaneous 5 mg/kg/dose
[9] = Group 5 (intravitreal 2.5 mg/eye, suspension), 6.0 hr
[10] = Group 5 (intravitreal 2.5 mg/eye, suspension), 24 hr
[11] = Group 5 (intravitreal 2.5 mg/eye, suspension), 48 hr
[12] = Group 5 (intravitreal 2.5 mg/eye, suspension), 72 hr
[13] = Group 5: intravitreal 1.54 mg/kg/dose
[14] = Group 3 (subcutaneous 5 mg/kg/dose, suspension), 2.0 hr, BLOQ = below 0.2 ng/mL
[15] = Group 3: subcutaneous 5 mg/kg/dose, 40 mM phosphate buffer pH 4.0 + 2.5% dextrose suspension
[16] = Group 3: subcutaneous 5 mg/kg/dose, 40 mM phosphate buffer pH 4.0 + 2.5% dextrose suspension, 0.25 hr
[17] = Group 3: subcutaneous 5 mg/kg/dose, 40 mM phosphate buffer pH 4.0 + 2.5% dextrose suspension, 0.50 hr
[18] = Group 3: subcutaneous 5 mg/kg/dose, 40 mM phosphate buffer pH 4.0 + 2.5% dextrose suspension, 1.0 hr
[19] = Group 3: subcutaneous 5 mg/kg/dose, 40 mM phosphate buffer pH 4.0 + 2.5% dextrose suspension, 2.0 hr
[20] = Group 3: subcutaneous 5 mg/kg/dose, 40 mM phosphate buffer pH 4.0 + 2.5% dextrose suspension, 4.0 hr
[21] = Group 3: subcutaneous suspension, normalized by nominal dose 5 mg/kg
[22] = Group 5: intravitreal 2.5 mg/eye (~1.54 mg/kg), 40 mM phosphate buffer pH 4.0 suspension
[23] = Group 5: intravitreal 2.5 mg/eye (~1.54 mg/kg), 40 mM phosphate buffer pH 4.0 suspension, 1.0 hr
[24] = Group 5: intravitreal 2.5 mg/eye (~1.54 mg/kg), 40 mM phosphate buffer pH 4.0 suspension, 3.0 hr
[25] = Group 5: intravitreal 2.5 mg/eye (~1.54 mg/kg), 40 mM phosphate buffer pH 4.0 suspension, 6.0 hr
[26] = Group 5: intravitreal 2.5 mg/eye (~1.54 mg/kg), 40 mM phosphate buffer pH 4.0 suspension, 24.0 hr
[27] = Group 5: intravitreal 2.5 mg/eye (~1.54 mg/kg), 40 mM phosphate buffer pH 4.0 suspension, 48.0 hr
[28] = Group 5: intravitreal 2.5 mg/eye (~1.54 mg/kg), 40 mM phosphate buffer pH 4.0 suspension, 72.0 hr
[29] = Group 5: intravitreal suspension, normalized by nominal dose 1.54 mg/kg

aqueous humor Average Conc. [1, 4]: 1.21 ng/g
aqueous humor Average Conc. [1, 5]: 0.41 ng/g
aqueous humor Average Conc. [1, 6]: 0.66 ng/g
aqueous humor Conc. OD [1, 6]: 0.601 ng/mL
aqueous humor Average Conc. [1, 7]: 0.51 ng/g
aqueous humor Conc. OS [1, 7]: 0.229 ng/mL
Average Peak Concentration, Aqueous Humor [1, 8]: 1.21 ng/g
aqueous humor Average Conc. [1, 9]: 26400 ng/g
aqueous humor Conc. OD [1, 9]: 34200 ng/mL and 23400 ng/mL
aqueous humor Average Conc. [1, 10]: 4270 ng/g
aqueous humor Conc. OD [1, 10]: 3890 ng/mL and 5540 ng/mL
aqueous humor Average Conc. [1, 11]: 915 ng/g
aqueous humor Average Conc. [1, 12]: 120 ng/g
aqueous humor Conc. OD [1, 12]: 145 ng/mL and 94.1 ng/mL
Average Peak Concentration, Aqueous Humor [1, 13]: 26400 ng/g
vitreous humor Average Conc. [2, 4]: 0.40 ng/g
vitreous humor Conc. OS [2, 4]: 0.227 ng/mL
vitreous humor Average Conc. [2, 5]: 0.41 ng/g
vitreous humor Conc. OS ([2]; Group 3 (subcutaneous 5 mg/kg/dose, suspension), 1.0 hr, BLOQ = below 0.2 ng/mL): BLOQ
vitreous humor Conc. OD [2, 14]: BLOQ
vitreous humor Conc. OS [2, 14]: BLOQ
vitreous humor Average Conc. [2, 7]: 0.41 ng/g
vitreous humor Conc. OD ([2]; Group 3 (subcutaneous 5 mg/kg/dose, suspension), 4.0 hr, BLOQ = below 0.2 ng/mL): BLOQ
Average Peak Concentration, Vitreous Humor [2, 8]: 0.40 ng/g
vitreous humor Average Conc. [2, 9]: 479750 ng/g
vitreous humor Conc. OD [2, 9]: 592000 ng/mL and 432000 ng/mL
vitreous humor Average Conc. [2, 10]: 408750 ng/g
vitreous humor Conc. OD [2, 10]: 296000 ng/mL and 491000 ng/mL
vitreous humor Conc. OS [2, 10]: 528000 ng/mL and 320000 ng/mL
vitreous humor Average Conc. [2, 11]: 97800 ng/g
vitreous humor Conc. OD [2, 11]: 75900 ng/mL and 68300 ng/mL
vitreous humor Conc. OS [2, 11]: 148000 ng/mL and 99000 ng/mL
vitreous humor Average Conc. [2, 12]: 65350 ng/g
Average Peak Concentration, Vitreous Humor [2, 13]: 479750 ng/g
plasma AUClast (± SE) [3, 15]: 864 ± 69 ng·h/mL and 864 ng·h/mL
plasma AUC∞ [3, 15]: 1198 ng·h/mL
plasma Cmax (± SE) [3, 15]: 395 ± 170 ng/mL and 395 ng/mL
plasma MRTlast [3, 15]: 1.58 h
plasma t1/2 [3, 15]: 2.12 h
plasma tmax [3, 15]: 0.25 h
plasma Average conc. [3, 16]: 395 ng/mL
plasma Conc., individual rabbit [3, 16]: 225 ng/mL and 565 ng/mL
plasma Average conc. [3, 17]: 337 ng/mL
plasma Conc., individual rabbit [3, 17]: 272 ng/mL and 401 ng/mL
plasma Average conc. [3, 18]: 295 ng/mL
plasma Conc., individual rabbit [3, 18]: 300 ng/mL and 289 ng/mL
plasma Average conc. [3, 19]: 206 ng/mL
plasma Conc., individual rabbit [3, 19]: 194 ng/mL and 217 ng/mL
plasma Average conc. [3, 20]: 110 ng/mL
plasma Conc., individual rabbit [3, 20]: 111 ng/mL and 108 ng/mL
plasma AUC∞, dose normalized [3, 21]: 240 kg·ng·h/mL/mg
plasma AUClast (± SE) [3, 22]: 707 ± 53.1 ng·h/mL and 707 ng·h/mL
plasma AUC∞ [3, 22]: 746 ng·h/mL
plasma Cmax (± SE) [3, 22]: 25.3 ± 9.30 ng/mL and 25.3 ng/mL
plasma MRTlast [3, 22]: 19.1 h
plasma t1/2 [3, 22]: 16.5 h
plasma tmax [3, 22]: 1.00 h
plasma Average conc. [3, 23]: 25.3 ng/mL
plasma Conc., individual rabbit [3, 23]: 34.6 ng/mL and 16.0 ng/mL
plasma Average conc. [3, 24]: 24.4 ng/mL
plasma Conc., individual rabbit [3, 24]: 28.4 ng/mL and 20.4 ng/mL
plasma Average conc. [3, 25]: 23.1 ng/mL
plasma Conc., individual rabbit [3, 25]: 22.0 ng/mL and 24.1 ng/mL
plasma Average conc. [3, 26]: 12.3 ng/mL
plasma Conc., individual rabbit [3, 26]: 9.96 ng/mL and 14.7 ng/mL
plasma Average conc. [3, 27]: 3.63 ng/mL
plasma Conc., individual rabbit [3, 27]: 2.69 ng/mL and 4.57 ng/mL
plasma Average conc. [3, 28]: 1.65 ng/mL
plasma Conc., individual rabbit [3, 28]: 1.83 ng/mL and 1.46 ng/mL
plasma tmax ([3]; Group 5: intravitreal 2.5 mg/eye (~1.54 mg/kg), 40 mM phosphate buffer pH 4.0 suspension, listed as Compound 1 (free acid)): 1 h
plasma AUC∞, dose normalized [3, 29]: 484 kg·ng·h/mL/mg
Structure (SMILES): COC(=O)N[C@@H](Cc1ccccc1)C(=O)N[C@@H](Cc1ccc(NS(=O)(=O)O)cc1)c1csc(-c2cccs2)n1 [Compound 1 free acid]
plasma AUClast, dose normalized [3, 21]: 173 ± 13.8 kg·ng·h/mL/mg and 173 kg·ng·h/mL/mg
plasma AUClast, dose normalized [3, 29]: 459 ± 34.5 kg·ng·h/mL/mg and 459 kg·ng·h/mL/mg

systemic exposure, as measured in plasma ([3]; all routes and formulations): confirmed
Structure (SMILES): COC(=O)N[C@@H](Cc1ccccc1)C(=O)N[C@@H](Cc1ccc(NS(=O)(=O)O)cc1)c1csc(-c2cccs2)n1 [Compound 1]
rank order of exposure in aqueous and vitreous humor by route ([1]; intravitreal, topical ocular, subcutaneous): intravitreal>>topical ocular>subcutaneous

Reference: patent publication US10952992B2, “Methods of treating intraocular pressure with activators of Tie-2” (Aerpio Pharmaceuticals, Inc., priority 2015, dated 2021)
